In patent US10259810B2, “N-sulfonylated pyrazolo[3,4-b]pyridin-6-carboxamides and method of use” (AbbVie S.à.r.l., priority 2015, dated 2019):

Key:
[1] = target: T1, ΔF508-CFTR (Homo sapiens, UniProt P13569, DEL508-508); assay: CFTR cell surface levels using HRP-tagged ΔF508-CFTR expressing CFBE cells, intrinsic corrector capacity; type: cell-based; parameters: % Activation: concentration or dose not given beside the values; conditions: HRP-tagged ΔF508-CFTR expressing CFBE41o- cells, compound alone (intrinsic corrector capacity), 20 hours at 33° C.; for EC50: read-out: EC50
T1 construct: host or cells: CFBE41o-, doxycycline-inducible
Method in brief: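 Surface ΔF508-CFTR was measured as HRP chemiluminescence from an extracellular-loop-4 tag, expressed as percent activity between DMSO and a […] corrector control.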

[2] = target: T1, ΔF508-CFTR; assay: CFTR cell surface levels using HRP-tagged ΔF508-CFTR expressing CFBE cells, in the presence of a co-corrector; type: cell-based; conditions: HRP-tagged ΔF508-CFTR CFBE cells, in the presence of 3 μM co-corrector; for EC50: read-out: EC50
Method in brief: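 Chemiluminescent read-out of surface HRP (15 min, dark) after PBS washes. Activity is normalized as 100×(sample−DMSO)/(3 μM co-corrector alone−DMSO).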

T1 sequence (P13569 with tags, fused parts or gaps DEL508-508): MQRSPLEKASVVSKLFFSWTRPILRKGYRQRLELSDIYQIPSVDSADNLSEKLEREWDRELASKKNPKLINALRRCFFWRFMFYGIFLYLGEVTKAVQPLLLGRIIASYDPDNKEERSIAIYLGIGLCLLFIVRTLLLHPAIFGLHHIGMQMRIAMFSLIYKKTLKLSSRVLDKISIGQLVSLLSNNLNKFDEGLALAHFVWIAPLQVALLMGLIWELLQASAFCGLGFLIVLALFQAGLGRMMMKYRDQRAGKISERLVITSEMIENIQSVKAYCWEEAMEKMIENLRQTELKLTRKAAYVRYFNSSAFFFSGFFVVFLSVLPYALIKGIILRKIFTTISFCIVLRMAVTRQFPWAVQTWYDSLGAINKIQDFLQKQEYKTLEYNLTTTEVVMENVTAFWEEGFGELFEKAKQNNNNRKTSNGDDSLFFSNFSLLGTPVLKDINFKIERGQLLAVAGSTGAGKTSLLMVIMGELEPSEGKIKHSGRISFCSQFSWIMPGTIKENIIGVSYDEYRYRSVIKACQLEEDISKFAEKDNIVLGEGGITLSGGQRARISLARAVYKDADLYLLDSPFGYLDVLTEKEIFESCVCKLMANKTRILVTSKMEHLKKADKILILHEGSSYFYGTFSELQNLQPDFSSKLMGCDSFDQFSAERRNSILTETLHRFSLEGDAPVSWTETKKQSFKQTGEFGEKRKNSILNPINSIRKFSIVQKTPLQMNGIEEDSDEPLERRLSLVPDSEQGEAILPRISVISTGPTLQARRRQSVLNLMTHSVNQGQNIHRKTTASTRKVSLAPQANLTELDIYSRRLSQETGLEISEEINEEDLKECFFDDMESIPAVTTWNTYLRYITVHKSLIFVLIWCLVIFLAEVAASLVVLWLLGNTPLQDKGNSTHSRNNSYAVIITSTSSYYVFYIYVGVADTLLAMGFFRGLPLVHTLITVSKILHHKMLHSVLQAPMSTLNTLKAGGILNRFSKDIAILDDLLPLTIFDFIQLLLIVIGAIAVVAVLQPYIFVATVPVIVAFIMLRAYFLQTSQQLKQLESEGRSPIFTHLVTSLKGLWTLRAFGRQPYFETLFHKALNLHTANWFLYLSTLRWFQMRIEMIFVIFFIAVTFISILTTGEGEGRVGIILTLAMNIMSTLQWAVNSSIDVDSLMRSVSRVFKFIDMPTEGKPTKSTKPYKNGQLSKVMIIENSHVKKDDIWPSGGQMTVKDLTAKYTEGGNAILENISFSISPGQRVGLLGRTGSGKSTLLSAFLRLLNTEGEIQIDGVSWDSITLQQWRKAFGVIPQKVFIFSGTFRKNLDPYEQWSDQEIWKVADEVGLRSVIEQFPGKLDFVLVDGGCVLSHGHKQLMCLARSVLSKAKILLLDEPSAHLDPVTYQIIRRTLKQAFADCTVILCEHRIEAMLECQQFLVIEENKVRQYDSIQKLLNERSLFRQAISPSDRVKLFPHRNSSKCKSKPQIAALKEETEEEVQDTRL

| SMILES | % Activation [1] [%] | EC50 [1] [nM] | % Activation [2] [%] | EC50 [2] [nM] |
| --- | --- | --- | --- | --- |
| CS(=O)(=O)NC(=O)c1cc(-c2ccc(N3CCC(C#N)CC3)nc2)c2c(n1)n(-c1ccccc1)nc2[C@H]1C[C@@H](F)C1 [Compound 209, 4-[6-(4-cyanopiperidin-1-yl)pyridin-3-yl]-3-(cis-3-fluorocyclobutyl)-N-(methanesulfonyl)-1-phenyl-1H-pyrazolo[3,4-b]pyridine-6-carboxamide] | 247.6 | 381 | 393.6 | 231 |
| CS(=O)(=O)NC(=O)c1cc(-c2ccc(N3CCC(C#N)CC3)nc2)c2c(n1)n(-c1ccccc1)nc2[C@H]1C[C@H](F)C1 [Compound 210, 4-[6-(4-cyanopiperidin-1-yl)pyridin-3-yl]-3-(trans-3-fluorocyclobutyl)-N-(methanesulfonyl)-1-phenyl-1H-pyrazolo[3,4-b]pyridine-6-carboxamide] | 205.57 | 286 | 390.57 | 174 |
| CO[C@H]1CC[C@@H](Oc2cc(C(=O)NS(C)(=O)=O)nc3c2c(C2CCC2)nn3-c2ccccc2)CC1 [Compound 211, 3-cyclobutyl-N-(methanesulfonyl)-4-[(cis-4-methoxycyclohexyl)oxy]-1-phenyl-1H-pyrazolo[3,4-b]pyridine-6-carboxamide] | 114.4 | 608 | 288.3 | 293 |
| CO[C@H]1CC[C@H](Oc2cc(C(=O)NS(C)(=O)=O)nc3c2c(C2CCC2)nn3-c2ccccc2)CC1 [Compound 212, 3-cyclobutyl-N-(methanesulfonyl)-4-[(trans-4-methoxycyclohexyl)oxy]-1-phenyl-1H-pyrazolo[3,4-b]pyridine-6-carboxamide] | 114.63 | 621 | 290.43 | 324 |
| CS(=O)(=O)NC(=O)c1cc(N2CCC(COCc3ccccc3)CC2)c2c(C3CCC3)nn(-c3ccccc3)c2n1 [Compound 213, 4-{4-[(benzyloxy)methyl]piperidin-1-yl}-3-cyclobutyl-N-(methanesulfonyl)-1-phenyl-1H-pyrazolo[3,4-b]pyridine-6-carboxamide] | 267.5 | 546 | 469.6 | 337 |
| CS(=O)(=O)NC(=O)c1cc(N2CC3(CCC3)C2)c2c(C3CCC3)nn(-c3ccccc3)c2n1 [Compound 214, 4-(2-azaspiro[3.3]heptan-2-yl)-3-cyclobutyl-N-(methanesulfonyl)-1-phenyl-1H-pyrazolo[3,4-b]pyridine-6-carboxamide] | 103.6 | 1010 | 250.55 | 384 |
| CC(=O)N1CCC2CN(c3cc(C(=O)NS(C)(=O)=O)nc4c3c(C3CCC3)nn4-c3ccccc3)CCC21 (stereo not shown) [Compound 216, 4-(1-acetyloctahydro-5H-pyrrolo[3,2-c]pyridin-5-yl)-3-cyclobutyl-N-(methanesulfonyl)-1-phenyl-1H-pyrazolo[3,4-b]pyridine-6-carboxamide] | 275.67 | 766 | 456.1 | 300 |
| COC1CCN(c2cc(C(=O)NS(C)(=O)=O)nc3c2c(C(C)C)nn3-c2cccc(N3CCOCC3)n2)CC1 [Compound 217, N-(methanesulfonyl)-4-(4-methoxypiperidin-1-yl)-1-[6-(morpholin-4-yl)pyridin-2-yl]-3-(propan-2-yl)-1H-pyrazolo[3,4-b]pyridine-6-carboxamide] | 246.77 | 458 | 418.27 | 257 |
| COCC1CCN(c2cc(C(=O)NS(C)(=O)=O)nc3c2c(C(C)C)nn3C2CCCCC2)CC1 [Compound 218, 1-cyclohexyl-N-(methanesulfonyl)-4-[4-(methoxymethyl)piperidin-1-yl]-3-(propan-2-yl)-1H-pyrazolo[3,4-b]pyridine-6-carboxamide] | 268.37 | 390 | 476.9 | 239 |
| CS(=O)(=O)NC(=O)c1cc(N2CCC(CF)CC2)c2c(C3CCC3)nn(-c3ccccc3)c2n1 [Compound 220, 3-cyclobutyl-4-[4-(fluoromethyl)piperidin-1-yl]-N-(methanesulfonyl)-1-phenyl-1H-pyrazolo[3,4-b]pyridine-6-carboxamide] | 202.5 | 348 | 389.9 | 208 |
| CS(=O)(=O)NC(=O)c1cc(N2CCC3(CCCCC3)CC2)c2c(C3CCC3)nn(-c3ccccc3)c2n1 [Compound 222, 4-(3-azaspiro[5.5]undecan-3-yl)-3-cyclobutyl-N-(methanesulfonyl)-1-phenyl-1H-pyrazolo[3,4-b]pyridine-6-carboxamide] | 65.685 | 1420 | 247.3 | 1790 |
| CCS(=O)(=O)NC(=O)c1cc(-c2ccc(N3CCOCC3)cc2)c2c(C(C)C)nn(-c3ccc(F)c(F)c3)c2n1 [Compound 223, 1-(3,4-difluorophenyl)-N-(ethanesulfonyl)-4-[4-(morpholin-4-yl)phenyl]-3-(propan-2-yl)-1H-pyrazolo[3,4-b]pyridine-6-carboxamide] | 258.95 | 469 | 438.2 | 371 |
| CCS(=O)(=O)NC(=O)c1cc(-c2ccc(N(C)C3CCOCC3)nc2)c2c(C(C)C)nn(-c3cccc(F)c3)c2n1 [Compound 224, N-(ethanesulfonyl)-1-(3-fluorophenyl)-4-{6-[methyl(oxan-4-yl)amino]pyridin-3-yl}-3-(propan-2-yl)-1H-pyrazolo[3,4-b]pyridine-6-carboxamide] | 228.8 | 544 | 453.1 | 482 |
| CC(C)Oc1nn(-c2ccccc2)c2nc(C(=O)NS(=O)(=O)C3CC3)cc(-c3ccc(N4CCOCC4)cc3)c12 [Compound 225, N-(cyclopropanesulfonyl)-4-[4-(morpholin-4-yl)phenyl]-1-phenyl-3-[(propan-2-yl)oxy]-1H-pyrazolo[3,4-b]pyridine-6-carboxamide] | 215.35 | 456 | 427.95 | 579 |
| CC(C)c1nn(-c2ccnc(N3CCOCC3)c2)c2nc(C(=O)NS(C)(=O)=O)cc(-c3ccc(N4CCC(C#N)CC4)nc3)c12 [Compound 227, 4-[6-(4-cyanopiperidin-1-yl)pyridin-3-yl]-N-(methanesulfonyl)-1-[2-(morpholin-4-yl)pyridin-4-yl]-3-(propan-2-yl)-1H-pyrazolo[3,4-b]pyridine-6-carboxamide] | 216.8 | 449 | 378.2 | 307 |
| COCCS(=O)(=O)NC(=O)c1cc(-c2ccc(OC)cc2)c2c(C)nn(CC(C)C)c2n1 [Compound 231, N-(2-methoxyethanesulfonyl)-4-(4-methoxyphenyl)-3-methyl-1-(2-methylpropyl)-1H-pyrazolo[3,4-b]pyridine-6-carboxamide] | 162.9 | 939 | 329.9 | 518 |
| COCCS(=O)(=O)NC(=O)c1cc(-c2ccc(N3CCOCC3)cc2)c2c(C(C)C)nn(C3CCOC3)c2n1 (stereo not shown) [Compound 232, N-(2-methoxyethanesulfonyl)-4-[4-(morpholin-4-yl)phenyl]-1-(oxolan-3-yl)-3-(propan-2-yl)-1H-pyrazolo[3,4-b]pyridine-6-carboxamide] | 71.64 | 1680 | 199.75 | 1730 |
| COCCS(=O)(=O)NC(=O)c1cc(-c2ccc(N3CCOCC3)cc2)c2cnn(-c3ccccc3)c2n1 [Compound 233, N-(2-methoxyethanesulfonyl)-4-[4-(morpholin-4-yl)phenyl]-1-phenyl-1H-pyrazolo[3,4-b]pyridine-6-carboxamide] | 58.34 | 2440 | 206.57 | 1930 |
| COCCS(=O)(=O)NC(=O)c1cc(-c2ccc(OC)cc2)c2c(C)nn(C(C)C)c2n1 [Compound 234, N-(2-methoxyethanesulfonyl)-4-(4-methoxyphenyl)-3-methyl-1-(propan-2-yl)-1H-pyrazolo[3,4-b]pyridine-6-carboxamide] | 17.89 | > 10000 | 128.3 | > 10000 |
| COCCS(=O)(=O)NC(=O)c1cc(-c2ccc(N3CCOCC3)cc2)c2c(C)nn(C3CC3)c2n1 [Compound 235, 1-cyclopropyl-N-(2-methoxyethanesulfonyl)-3-methyl-4-[4-(morpholin-4-yl)phenyl]-1H-pyrazolo[3,4-b]pyridine-6-carboxamide] | 102.76 | 3270 | 257.55 | 2490 |
| CS(=O)(=O)NC(=O)c1cc(OC[C@H](F)C2CCOCC2)c2c(C3CCC3)nn(-c3ccccc3)c2n1 [Compound 237, 3-cyclobutyl-4-[(2R)-2-fluoro-2-(oxan-4-yl)ethoxy]-N-(methanesulfonyl)-1-phenyl-1H-pyrazolo[3,4-b]pyridine-6-carboxamide] | 120 | 453 | 264.05 | 222 |
| Cc1nn(C2CCCCC2)c2nc(C(=O)NS(=O)(=O)C3CC3)cc(-c3ccc(N4CCOCC4)cc3)c12 [Compound 239, 1-cyclohexyl-N-(cyclopropanesulfonyl)-3-methyl-4-[4-(morpholin-4-yl)phenyl]-1H-pyrazolo[3,4-b]pyridine-6-carboxamide] | 184.6 | 999 | 431.55 | 1240 |
